Test results reported in the supplement of paper PMC5844555.

Experiments:
Assay in all cases: 3' UTR reporter interaction score (median-centred robust z-score of log2 firefly/Renilla activity); higher = less repression of the 3' UTR reporter
Settings in all cases: HEK293T; 48 h
BRCA2 = test system: BRCA2
Summary of the method: (§1)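 A firefly luc2P reporter carrying the gene's 3' UTR (100 ng), Renilla pRL-TK control (20 ng) and miRNA mimic (2.5 pmol) were co-transfected with DharmaFECT Duo into HEK293T cells plated at 10,000/well in 96-well plates. Luciferase activities were read 48 h post-transfection. The interaction score is the log firefly/Renilla ratio as a per-plate robust z-score from median and median absolute deviation, median-centred per miRNA, and more negative indicates interaction. Values are averages of at least two independent screens.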

EZH2 = test system: EZH2
Summary of the method: as §1

FBXW7 = test system: FBXW7
Summary of the method: as §1

HRAS = test system: HRAS
Summary of the method: as §1

MYB = test system: MYB
Summary of the method: as §1

MYCN = test system: MYCN
Summary of the method: as §1

MYC = test system: MYC
Summary of the method: as §1

MYT1L = test system: MYT1L
Summary of the method: as §1

NOTCH1 = test system: NOTCH1
Summary of the method: as §1

PHF6 = test system: PHF6
Summary of the method: as §1

PHOX2B = test system: PHOX2B
Summary of the method: as §1

RB1 = test system: RB1
Summary of the method: as §1

TP53 = test system: TP53
Summary of the method: as §1

ZEB2 = test system: ZEB2
Summary of the method: as §1

Sequence | 3' UTR reporter interaction score (BRCA2) | 3' UTR reporter interaction score (EZH2) | 3' UTR reporter interaction score (FBXW7) | 3' UTR reporter interaction score (HRAS) | 3' UTR reporter interaction score (MYB) | 3' UTR reporter interaction score (MYCN) | 3' UTR reporter interaction score (MYC) | 3' UTR reporter interaction score (MYT1L) | 3' UTR reporter interaction score (NOTCH1) | 3' UTR reporter interaction score (PHF6) | 3' UTR reporter interaction score (PHOX2B) | 3' UTR reporter interaction score (RB1) | 3' UTR reporter interaction score (TP53) | 3' UTR reporter interaction score (ZEB2)
CCUCUAGAUGGAAGCACUGUCU | 1.43 | 0.875 | -0.485 | 0.49 | 1.05 | -0.452 | -0.352 | -0.377 | 0.00559 | 0.44 | -0.512 | 1.24 | -0.0691 | 0.763
CCUCUGGGCCCUUCCUCCAG | 1.66 | -0.302 | -0.553 | 0.196 | 0.205 | 0.2 | -0.307 | -1.13 | -0.555 | 1.9 | -0.825 | 0.604 | 1.37 | 0.525
CGAAUGUUGCUCGGUGAACCCCU | -0.821 | -0.254 | 0.304 | -0.194 | 0.287 | 0.119 | 0.217 | 0.642 | 1.32 | -1.07 | 1.32 | 0.281 | -0.241 | -0.941
CGCAUCCCCUAGGGCAUUGGUGU | 0.625 | 0.639 | -0.0954 | 1.06 | -0.38 | -0.239 | 0.19 | -3.16 | -1.34 | -0.956 | 0.221 | -0.799 | 0.263 | -0.392
CGGGUGGAUCACGAUGCAAUUU | 0.639 | -0.645 | 0.899 | -0.371 | -0.118 | 0.00745 | 0.166 | 0.0585 | 0.128 | -0.0241 | -0.988 | 0.702 | 0.809 | -1.87
CUAAUAGUAUCUACCACAAUAAA | 0.274 | 0.167 | 0.465 | -0.78 | 1.16 | 0.604 | -0.306 | -0.606 | 0.264 | -0.303 | 0.231 | -0.459 | -0.375 | 0.675
CUACAAAGGGAAGCACUUUCUC | -0.805 | 0.77 | -0.7 | -1.25 | 0.666 | -0.614 | 0.411 | 0.757 | 0.148 | 0.716 | 1.76 | 0.032 | -1.31 | -3.59
CUCCAGAGGGAAGUACUUUCU | -0.139 | -0.448 | 1.4 | -1.03 | 1.53 | -0.236 | -0.333 | 1.19 | -0.176 | 1.27 | 0.786 | -2.92 | -0.641 | 0.514
CUCCAGAGGGAUGCACUUUCU | -0.169 | 0.363 | -0.219 | -0.937 | -0.659 | -0.234 | 0.629 | 0.128 | 0.885 | 1.04 | 1.08 | 0.459 | 0.339 | -0.701
CUCUAGAGGGAAGCACUUUCU | -0.166 | -0.021 | -1.73 | 0.934 | 1.78 | -0.174 | 0.565 | -0.138 | 0.59 | -0.252 | -1.07 | -0.897 | -0.127 | 1.31
